Data taken from patent publication US6444617B1, “Fused-heterocycle dicarboxylic acid diamide derivatives or salts thereof, herbicide and usage thereof” (Nihon Nohyaku Co., Ltd., priority 1998, dated 2002).

Tests used:
Type in all cases: in vivo
[1] = system: velvetleaf (Abutilon theophtasti L.), At; assay: Test Example 4: herbicidal effect on upland weeds after emergence; conditions: dosage 5 kg/ha; sprayed after emergence; judged 14 days after treatment
From the text: (§1) Herbicidal Effect on Upland Weeds After Emergence Polyethylene-made vats having a size of 10 cm (length)×20 cm (width)×5 cm (height) were filled with soil, sown with seeds of the following noxious upland weeds and with seeds of soybean plant and wheat as upland crop plants, and then covered with soil. The plants were made to grow up until they reached the leaf-stages mentioned below, after which an agent comprising a prescribed concentration of a compound of the present invention (listed in Tables 1 to 14) as active ingredient was sprayed. Fourteen days after the treatment, the herbicidal effect was investigated, from which weed-killing rate was calculated in the same manner as in Test Example 1 and the results were judged. […] Sample weeds, their leaf stages, and leaf stages of soybean plant and wheat were as follows: [table]

[2] = system: forxtail grass (Alopecurus aequalis var. amurensis Ohwi), Am; assay: as above; conditions: dosage 5 kg/ha; sprayed after emergence; judged 14 days after treatment
From the text: as §1

[3] = system: barnyard grass (Echinochloa crus-galli Beauv.), Ec; assay: as above; conditions: dosage 5 kg/ha; sprayed after emergence; judged 14 days after treatment
From the text: as §1

[4] = system: cleavers (Galium aparine L.), Ga; assay: as above; conditions: dosage 5 kg/ha; sprayed after emergence; judged 14 days after treatment
From the text: as §1

[5] = system: bird's eye speedwell (Veronica persica Poir.), Vp; assay: as above; conditions: dosage 5 kg/ha; sprayed after emergence; judged 14 days after treatment
From the text: as §1

[6] = system: cocklebur (Xanthium strumarium L.), Xs; assay: as above; conditions: dosage 5 kg/ha; sprayed after emergence; judged 14 days after treatment
From the text: as §1

soybean plant (So) = assay: Test Example 3: phytotoxicity to upland crop plants, treatment before emergence; conditions: dosage 5 kg/ha
Experimental: (§2) Herbicidal Effect on Upland Weeds Before Emergence […] Then, a liquid preparation of an agent comprising a prescribed concentration of a compound of the present invention (the compounds listed in Tables 1-14) as active ingredient was sprayed. Fourteen days after the treatment, the herbicidal effect was investigated, from which weed-killing rate was calculated in the same manner as in Test Example 1, and the herbicidal effect was judged. At the same time, phytotoxicity to soybean plant and wheat was investigated and judged according to the criterion mentioned below.

wheat (Wh) = assay: as above; conditions: dosage 5 kg/ha
Experimental: as §2

soybean plant = assay: Test Example 4: phytotoxicity to upland crop plants, treatment after emergence; conditions: dosage 5 kg/ha, sprayed after emergence, judged 14 days after treatment
From the text: as §1

wheat = assay: as above; conditions: dosage 5 kg/ha, sprayed after emergence, judged 14 days after treatment
From the text: as §1

[7] = system: velvetleaf (Abutilon theophtasti L.), At; assay: Test Example 3: herbicidal effect on upland weeds before emergence; conditions: dosage 5 kg/ha
Experimental: as §2, with “judged.” for “judged. At the same time, phytotoxicity to soybean plant and wheat was investigated and judged according to the criterion mentioned below.”

[8] = system: forxtail grass (Alopecurus aequalis var. amurensis Ohwi), Am; assay: as above; conditions: foxtail grass, dosage 5 kg/ha
Experimental: as §2, with “judged.” for “judged. At the same time, phytotoxicity to soybean plant and wheat was investigated and judged according to the criterion mentioned below.”

[9] = system: barnyard grass (Echinochloa crus-galli Beauv.), Ec; assay: as above; conditions: dosage 5 kg/ha
Experimental: as §2, with “judged.” for “judged. At the same time, phytotoxicity to soybean plant and wheat was investigated and judged according to the criterion mentioned below.”

[10] = system: cleavers (Galium aparine L.), Ga; assay: as above; conditions: dosage 5 kg/ha
Experimental: as §2, with “judged.” for “judged. At the same time, phytotoxicity to soybean plant and wheat was investigated and judged according to the criterion mentioned below.”

[11] = system: bird's eye speedwell (Veronica persica Poir.), Vp; assay: as above; conditions: dosage 5 kg/ha
Experimental: as §2, with “judged.” for “judged. At the same time, phytotoxicity to soybean plant and wheat was investigated and judged according to the criterion mentioned below.”

[12] = system: cocklebur (Xanthium strumarium L.), Xs; assay: as above; conditions: dosage 5 kg/ha
Experimental: as §2, with “judged.” for “judged. At the same time, phytotoxicity to soybean plant and wheat was investigated and judged according to the criterion mentioned below.”

[13] = system: bulrush (Scirpus juncoides Roxb.); assay: Test Example 2: herbicidal effect on paddy field weeds after emergence; conditions: Dosage 5 kg/ha; one-leaved stage; 21 days after treatment
Experimental: (§3) Test for Herbicidal Effect on Paddy Field Weeds After Emergence. Soil was filled into 1/10000 are pots and brought into a state of paddy field, in which seeds of barnyard grass (Echinochloa crus-galli Beauv.), bulrush (Scirpus juncoides Roxb.) and monochoria (Monochoria vaginalis Presl) were made to reach one-leaved stage. The soil in the pots were treated with a solution containing a predetermined dosage of a chemical agent comprising a compound of the present invention listed in Tables 1 to 14. Twenty one days after the treatment, the herbicidal effect was investigated and the result was compared with that in untreated plot to calculate the weed-controlling rate, and the herbicidal effect was judged according to the same criterion as in Test Example 1.

[14] = system: barnyard grass (Echinochloa crus-galli Beauv.); assay: as above; conditions: Dosage 5 kg/ha; one-leaved stage; 21 days after treatment
Experimental: as §3

[15] = system: monochoria (Monochoria vaginalis Presl); assay: as above; conditions: Dosage 5 kg/ha; one-leaved stage; 21 days after treatment
Experimental: as §3

[16] = system: bulrush (Scirpus juncoides Roxb.); assay: Test Example 1: herbicidal effect on paddy field weeds before emergence; conditions: Dosage 5 kg/ha
Experimental: as §3, with “Before Emergence” for “After Emergence.”, “Beauv.) and” for “Beauv.),”, “Roxb.)” for “Roxb.) and monochoria (Monochoria vaginalis Presl)”, “be before germination.” for “reach one-leaved stage.”, “investigated,” for “investigated and”, “following criterion: […]” for “same criterion as in Test Example 1.”

[17] = system: barnyard grass (Echinochloa crus-galli Beauv.); assay: as above; conditions: Dosage 5 kg/ha
Experimental: as §3, with “Before Emergence” for “After Emergence.”, “Beauv.) and” for “Beauv.),”, “Roxb.)” for “Roxb.) and monochoria (Monochoria vaginalis Presl)”, “be before germination.” for “reach one-leaved stage.”, “investigated,” for “investigated and”, “following criterion: […]” for “same criterion as in Test Example 1.”

Row | SMILES | Herbicidal effect At [1] | Herbicidal effect Am [2] | Herbicidal effect Ec [3] | Herbicidal effect Ga [4] | Herbicidal effect Vp [5] | Herbicidal effect Xs [6] | Phytotoxicity So (soybean plant (So)) | Phytotoxicity Wh (wheat (Wh)) | Phytotoxicity So (soybean plant) | Phytotoxicity Wh (wheat) | Herbicidal effect At [7] | Herbicidal effect Am [8] | Herbicidal effect Ec [9] | Herbicidal effect Ga [10] | Herbicidal effect Vp [11] | Herbicidal effect Xs [12] | Post-emergence treatment Bulrush (herbicidal effect) [13] | Post-emergence treatment Barnyard grass (herbicidal effect) [14] | Post-emergence treatment Monochoria (herbicidal effect) [15] | Pre-emergence treatment Bulrush (herbicidal effect) [16] | also measured
1 | CCCNC(=O)c1nc2c(cnn2C)cc1C(=O)Nc1c(CC)ccc(Cl)c1CC [compound 1088] | 5 (Weed-killing rate is 100%.) | 5 (Weed-killing rate is 100%.) | 5 (Weed-killing rate is 100%.) | 5 (Weed-killing rate is 100%.) | 5 (Weed-killing rate is 100%.) | 5 (Weed-killing rate is 100%.) | 5 (Crop-killing rate is 100%.) | 5 (Crop-killing rate is 100%.) | 5 (Crop-killing rate is 100%.) | 5 (Crop-killing rate is 100%.) | 5 (Weed-killing rate is 100%.) | 5 (Weed-killing rate is 100%.) | 5 (Weed-killing rate is 100%.) | 5 (Weed-killing rate is 100%.) | 5 (Weed-killing rate is 100%.) | 5 (Weed-killing rate is 100%.) | 5 (Weed-killing rate is 100%.) | 5 (Weed-killing rate is 100%.) | 5 (Weed-killing rate is 100%.) | 5 (Weed-killing rate is 100%.) | Pre-emergence treatment Barnyard grass (herbicidal effect) [17]: 5 (Weed-killing rate is 100%.)
2 | CCc1ccc(Cl)c(CC)c1NC(=O)c1cc2ccccc2nc1C(=O)NCC(C)(C)C [359-5] | 5 (Weed-killing rate is 100%.) | 5 (Weed-killing rate is 100%.) | 5 (Weed-killing rate is 100%.) | 5 (Weed-killing rate is 100%.) | 5 (Weed-killing rate is 100%.) | 5 (Weed-killing rate is 100%.) | 0 (Crop-killing rate is 0-20% (No Phytotoxicity).) | 0 (Crop-killing rate is 0-20% (No Phytotoxicity).) | 2 (Crop-killing rate is 40-69%.) | 3 (Crop-killing rate is 70-89%.) | 5 (Weed-killing rate is 100%.) | 5 (Weed-killing rate is 100%.) | 5 (Weed-killing rate is 100%.) | 5 (Weed-killing rate is 100%.) | 5 (Weed-killing rate is 100%.) | 5 (Weed-killing rate is 100%.) | 5 (Weed-killing rate is 100%.) | 5 (Weed-killing rate is 100%.) | 5 (Weed-killing rate is 100%.) | 5 (Weed-killing rate is 100%.) | Pre-emergence treatment Barnyard grass (herbicidal effect) [17]: 5 (Weed-killing rate is 100%.)
3 | CCCNC(=O)c1nc2ccc(OC)cc2cc1C(=O)Nc1c(CC)ccc(Cl)c1CC [compound 290] | 5 (Weed-killing rate is 100%.) | 5 (Weed-killing rate is 100%.) | 5 (Weed-killing rate is 100%.) | 5 (Weed-killing rate is 100%.) | 5 (Weed-killing rate is 100%.) | 4 (Weed-killing rate is 90-99%.) | 1 (Crop-killing rate is 1-39%.) | 2 (Crop-killing rate is 40-69%.) | 2 (Crop-killing rate is 40-69%.) | 3 (Crop-killing rate is 70-89%.) | 5 (Weed-killing rate is 100%.) | 5 (Weed-killing rate is 100%.) | 5 (Weed-killing rate is 100%.) | 5 (Weed-killing rate is 100%.) | 5 (Weed-killing rate is 100%.) | 4 (Weed-killing rate is 90-99%.) | 5 (Weed-killing rate is 100%.) | 5 (Weed-killing rate is 100%.) | 5 (Weed-killing rate is 100%.) | 5 (Weed-killing rate is 100%.) | Pre-emergence treatment Barnyard grass (herbicidal effect) [17]: 5 (Weed-killing rate is 100%.)
4 | CCCNC(=O)c1nc2nc(C)n(C)c2cc1C(=O)Nc1c(CC)ccc(Cl)c1CC [compound 1233] | 5 (Weed-killing rate is 100%.) | 5 (Weed-killing rate is 100%.) | 5 (Weed-killing rate is 100%.) | 5 (Weed-killing rate is 100%.) | 5 (Weed-killing rate is 100%.) | 5 (Weed-killing rate is 100%.) | 5 (Crop-killing rate is 100%.) | 5 (Crop-killing rate is 100%.) | 5 (Crop-killing rate is 100%.) | 5 (Crop-killing rate is 100%.) | 5 (Weed-killing rate is 100%.) | 5 (Weed-killing rate is 100%.) | 5 (Weed-killing rate is 100%.) | 5 (Weed-killing rate is 100%.) | 5 (Weed-killing rate is 100%.) | 5 (Weed-killing rate is 100%.) | 5 (Weed-killing rate is 100%.) | 5 (Weed-killing rate is 100%.) | 5 (Weed-killing rate is 100%.) | 5 (Weed-killing rate is 100%.) | Pre-emergence treatment Barnyard grass (herbicidal effect) [17]: 5 (Weed-killing rate is 100%.)
5 | Cc1c(Cl)cccc1NC(=O)c1nc2ccccc2nc1C(=O)NC1CCCC1 [compound 1327] | 5 (Weed-killing rate is 100%.) | 5 (Weed-killing rate is 100%.) | 5 (Weed-killing rate is 100%.) | 5 (Weed-killing rate is 100%.) | 5 (Weed-killing rate is 100%.) | 4 (Weed-killing rate is 90-99%.) | 3 (Crop-killing rate is 70-89%.) | 5 (Crop-killing rate is 100%.) | 3 (Crop-killing rate is 70-89%.) | 4 (Crop-killing rate is 90-99%.) | 5 (Weed-killing rate is 100%.) | 5 (Weed-killing rate is 100%.) | 5 (Weed-killing rate is 100%.) | 4 (Weed-killing rate is 90-99%.) | 5 (Weed-killing rate is 100%.) | 4 (Weed-killing rate is 90-99%.) | 4 (Weed-killing rate is 90-99%.) | 4 (Weed-killing rate is 90-99%.) | 5 (Weed-killing rate is 100%.) | 4 (Weed-killing rate is 90-99%.) | Pre-emergence treatment Barnyard grass (herbicidal effect) [17]: 5 (Weed-killing rate is 100%.)
